Reference: PubChem BioAssay AID2060492 (Molecular Pharmacology Branch, DTP, NCI, 2025)

Tested on: 695427-040-R-J1-PDC complex spheroids, viability percent T/C
Experiment: Anticancer human tumor 695427-040-R-J1-PDC patient-derived colon adenocarcinoma cell line growth inhibition [GQUAD]
Details: for IC50: curve of first compound; for viability, T/C: stronger effect = lower value; active = viability on the fitted dose curve at most 10% of control; inactive = the rest
Summary of the method: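 Viability of tumor cells grown as complex spheroids with endothelial and stromal cells, exposed to drug combinations. Top concentration at or near clinical Cmax (else 10 microM), diluted in half-log increments.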

[1] = second compound 0.0316 µM, first compound 0.0316 µM
[2] = second compound 0.0316 µM, first compound 0.1 µM
[3] = second compound 0.0316 µM, first compound 0.316 µM
[4] = second compound 0.0316 µM, first compound 1 µM
[5] = second compound 0.0316 µM, first compound 3.16 µM
[6] = second compound 0.0316 µM, first compound 10 µM
[7] = second compound 0.1 µM, first compound 0.0316 µM
[8] = second compound 0.1 µM, first compound 0.1 µM
[9] = second compound 0.1 µM, first compound 0.316 µM
[10] = second compound 0.1 µM, first compound 1 µM
[11] = second compound 0.1 µM, first compound 3.16 µM
[12] = second compound 0.1 µM, first compound 10 µM
[13] = second compound 0.316 µM, first compound 0.0316 µM
[14] = second compound 0.316 µM, first compound 0.1 µM
[15] = second compound 0.316 µM, first compound 0.316 µM
[16] = second compound 0.316 µM, first compound 1 µM
[17] = second compound 0.316 µM, first compound 3.16 µM
[18] = second compound 0.316 µM, first compound 10 µM
[19] = second compound 1 µM, first compound 0.0316 µM
[20] = second compound 1 µM, first compound 0.1 µM
[21] = second compound 1 µM, first compound 0.316 µM
[22] = second compound 1 µM, first compound 1 µM
[23] = second compound 1 µM, first compound 3.16 µM
[24] = second compound 1 µM, first compound 10 µM
[25] = second compound 3.16 µM, first compound 0.0316 µM
[26] = second compound 3.16 µM, first compound 0.1 µM
[27] = second compound 3.16 µM, first compound 0.316 µM
[28] = second compound 3.16 µM, first compound 1 µM
[29] = second compound 3.16 µM, first compound 3.16 µM
[30] = second compound 3.16 µM, first compound 10 µM
[31] = second compound 10 µM, first compound 0.0316 µM
[32] = second compound 10 µM, first compound 0.1 µM
[33] = second compound 10 µM, first compound 0.316 µM
[34] = second compound 10 µM, first compound 1 µM
[35] = second compound 10 µM, first compound 3.16 µM
[36] = second compound 10 µM, first compound 10 µM
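Note: spheroids exposed to compounds for seven days before readout.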

CC1COCCN1c1cc(-c2ccnn2C)c2ccnc(-c3ccn[nH]3)c2n1 (stereo not drawn) + Cc1cnc(CNC(=O)c2c(=O)c3ccc(N4CCCN(C)CC4)nc3n3c2sc2ccccc23)cn1
0.0519 µM: IC50 (second compound 1 µM)
< 0.0316 µM: IC50 (second compound 3.16 µM) | IC50 (second compound 10 µM)
active: viability, T/C [36] 1.36%
0.0684 µM: IC50 (second compound 0.1 µM)
inactive: viability, T/C [1] 62.7% | viability, T/C [2] 52% | viability, T/C [3] 38.8% | viability, T/C [4] 29.9% | viability, T/C [5] 28.1% | viability, T/C [6] 26.6% | viability, T/C [7] 59.9% | viability, T/C [8] 44.5% | viability, T/C [9] 36.2% | viability, T/C [10] 25.6% | viability, T/C [11] 29.4% | viability, T/C [12] 29.2% | viability, T/C [13] 69.3% | viability, T/C [14] 43.2% | viability, T/C [15] 37.3% | viability, T/C [16] 28% | viability, T/C [17] 30% | viability, T/C [18] 24.9% | viability, T/C [19] 58.8% | viability, T/C [20] 35.6% | viability, T/C [21] 34.1% | viability, T/C [22] 22.7% | viability, T/C [23] 27.7% | viability, T/C [24] 14.8% | viability, T/C [25] 21.8% | viability, T/C [26] 31.4% | viability, T/C [27] 28.9% | viability, T/C [28] 20.6% | viability, T/C [29] 20.5% | viability, T/C [30] 11.5% | viability, T/C [31] 24.9% | viability, T/C [32] 19.6% | viability, T/C [33] 24.8% | viability, T/C [34] 16.6% | viability, T/C [35] 13.6%
0.0792 µM: IC50 (second compound 0.316 µM)
0.12 µM: IC50 (second compound 0.0316 µM)

CC1COCCN1c1cc(C2(O)CC3CCC(C2)O3)c2cnn(-c3ccn[nH]3)c2n1 (stereo not drawn) + Cc1cnc(CNC(=O)c2c(=O)c3ccc(N4CCCN(C)CC4)nc3n3c2sc2ccccc23)cn1
inactive: viability, T/C [1] 75.1% | viability, T/C [2] 63% | viability, T/C [3] 49.8% | viability, T/C [4] 31.1% | viability, T/C [5] 26% | viability, T/C [6] 18.1% | viability, T/C [7] 79% | viability, T/C [8] 57% | viability, T/C [9] 47% | viability, T/C [10] 34.1% | viability, T/C [11] 30.3% | viability, T/C [12] 20.9% | viability, T/C [13] 81.7% | viability, T/C [14] 41.3% | viability, T/C [15] 40.2% | viability, T/C [16] 26.8% | viability, T/C [17] 26.4% | viability, T/C [18] 18.4% | viability, T/C [19] 38.5% | viability, T/C [20] 41.1% | viability, T/C [21] 31.5% | viability, T/C [22] 29.7% | viability, T/C [23] 28.2% | viability, T/C [24] 14.3% | viability, T/C [25] 30.2% | viability, T/C [26] 35% | viability, T/C [27] 28.5% | viability, T/C [28] 16.9% | viability, T/C [29] 19.5% | viability, T/C [31] 22.1% | viability, T/C [32] 22.2% | viability, T/C [33] 19.3% | viability, T/C [34] 15.2%
0.0911 µM: IC50 (second compound 0.316 µM)
0.22 µM: IC50 (second compound 0.1 µM)
< 0.0316 µM: IC50 (second compound 1 µM) | IC50 (second compound 3.16 µM) | IC50 (second compound 10 µM)
active: viability, T/C [30] 4.04% | viability, T/C [35] 8.74% | viability, T/C [36] 0.42%
0.277 µM: IC50 (second compound 0.0316 µM)

CC1COCCN1c1cc(C2(S(C)(=N)=O)CC2)nc(-c2ccnc3[nH]ccc23)n1 (stereo not drawn) + Cc1cnc(CNC(=O)c2c(=O)c3ccc(N4CCCN(C)CC4)nc3n3c2sc2ccccc23)cn1
inactive: viability, T/C [1] 95.6% | viability, T/C [2] 93.5% | viability, T/C [3] 95.3% | viability, T/C [4] 94.2% | viability, T/C [5] 74.8% | viability, T/C [6] 66.2% | viability, T/C [7] 85.2% | viability, T/C [8] 79.1% | viability, T/C [9] 89.3% | viability, T/C [10] 64.4% | viability, T/C [11] 74.2% | viability, T/C [12] 55.4% | viability, T/C [13] 76.8% | viability, T/C [14] 71.5% | viability, T/C [15] 77.5% | viability, T/C [16] 66.1% | viability, T/C [17] 77.9% | viability, T/C [18] 50.4% | viability, T/C [19] 51.8% | viability, T/C [20] 66.6% | viability, T/C [21] 59.7% | viability, T/C [22] 66.7% | viability, T/C [23] 62.7% | viability, T/C [24] 47.3% | viability, T/C [25] 33.4% | viability, T/C [26] 58.1% | viability, T/C [27] 53.2% | viability, T/C [28] 49.4% | viability, T/C [29] 51.5% | viability, T/C [30] 36.9% | viability, T/C [31] 33.8% | viability, T/C [32] 36.5% | viability, T/C [33] 41.7% | viability, T/C [34] 39.1% | viability, T/C [35] 44% | viability, T/C [36] 25.5%
< 0.0316 µM: IC50 (second compound 3.16 µM) | IC50 (second compound 10 µM)
> 10 µM: IC50 (second compound 0.0316 µM) | IC50 (second compound 0.1 µM) | IC50 (second compound 0.316 µM) | IC50 (second compound 1 µM)

COc1ccc([C@@H](O)c2cc(-c3ncnc4cc(N5CCOCC5)ccc34)c(F)cc2Cl)nn1 + Cc1cnc(CNC(=O)c2c(=O)c3ccc(N4CCCN(C)CC4)nc3n3c2sc2ccccc23)cn1
3.68 µM: IC50 (second compound 0.1 µM)
2.08 µM: IC50 (second compound 0.316 µM)
2.95 µM: IC50 (second compound 0.0316 µM)
< 0.0316 µM: IC50 (second compound 3.16 µM) | IC50 (second compound 10 µM)
2.33 µM: IC50 (second compound 1 µM)
active: viability, T/C [36] 5.79%
inactive: viability, T/C [1] 93.2% | viability, T/C [2] 101% | viability, T/C [3] 85.6% | viability, T/C [4] 64.3% | viability, T/C [5] 53.1% | viability, T/C [6] 31.2% | viability, T/C [7] 91.5% | viability, T/C [8] 103% | viability, T/C [9] 80.5% | viability, T/C [10] 66.5% | viability, T/C [11] 55.7% | viability, T/C [12] 36.3% | viability, T/C [13] 72.6% | viability, T/C [14] 79.3% | viability, T/C [15] 69.8% | viability, T/C [16] 56.1% | viability, T/C [17] 47.5% | viability, T/C [18] 35.2% | viability, T/C [19] 58% | viability, T/C [20] 69.4% | viability, T/C [21] 60.9% | viability, T/C [22] 52.2% | viability, T/C [23] 49.6% | viability, T/C [24] 32% | viability, T/C [25] 41.5% | viability, T/C [26] 46.3% | viability, T/C [27] 42.7% | viability, T/C [28] 46% | viability, T/C [29] 39.5% | viability, T/C [30] 21.9% | viability, T/C [31] 36.8% | viability, T/C [32] 39.6% | viability, T/C [33] 36.3% | viability, T/C [34] 33.6% | viability, T/C [35] 20.2%
